Patent publication US6380230B1, “Carboxamidothiazole derivatives, preparation, pharmaceutical compositions containing them” (Sanofi-Synthelabo, priority 1997, dated 2002)

How the values were obtained:
human CCK-A receptor [1] = molecular target: T1, human CCK-A receptor (Homo sapiens, UniProt P32238); assay: mobilization of intracellular calcium ([Ca++]i, Fura-2) in 3T3 cells expressing the human CCK-A receptor; assay type: cell-based
T1 construct: expressed in transfected cells; host or cells: 3T3 cells
T1 sequence (P32238 1-428): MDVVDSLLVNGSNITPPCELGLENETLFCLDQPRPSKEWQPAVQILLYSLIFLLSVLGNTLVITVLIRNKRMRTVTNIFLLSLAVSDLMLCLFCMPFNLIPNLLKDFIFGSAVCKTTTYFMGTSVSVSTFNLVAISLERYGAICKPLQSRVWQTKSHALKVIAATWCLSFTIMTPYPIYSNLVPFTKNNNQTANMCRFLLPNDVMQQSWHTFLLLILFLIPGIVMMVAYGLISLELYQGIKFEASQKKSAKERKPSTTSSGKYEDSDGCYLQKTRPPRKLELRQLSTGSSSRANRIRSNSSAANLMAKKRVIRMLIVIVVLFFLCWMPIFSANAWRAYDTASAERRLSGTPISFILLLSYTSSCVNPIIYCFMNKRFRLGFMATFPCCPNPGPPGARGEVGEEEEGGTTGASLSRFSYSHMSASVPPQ
Experimental: The calcium concentration [Ca^++]i is evaluated with Fura-2 as fluorescent probe, by the double excitation wavelength method. The ratio of the fluorescence emitted at two wavelengths gives the concentration of [Ca^++]i after calibration (Grynkiewicz G. et al., J. Biol. Chem., 1985, 260, 3440-3450).

human CCK-A receptor [2] = molecular target: T1, human CCK-A receptor; assay: displacement of [125I]-CCK from 3T3 cells expressing the human CCK-A recombinant receptor; assay type: binding; details: read-out: affinity for the human CCK-A receptor (IC50)
[3] = test system: Female Swiss albino CD1 mice; assay: gastric drainage (charcoal meal) in mice, intraperitoneal administration; assay type: in vivo; details: intraperitoneally
Experimental: The compounds of the present invention were also studied in vivo, by evaluating their capacity to block gastric drainage in mice.
A study of the agonist effect of the compounds on gastric drainage was carried out as follows. Female Swiss albino CD1 mice (20-25 g) are placed on a solid fast for 18 hours. On the day of the experiment, the products (as a suspension in 1% carboxymethyl cellulose solution or in 0.6% methylcellulose solution) or the corresponding vehicle are administered intraperitoneally, 30 minutes before administering a charcoal meal (0.3 ml per mouse of a suspension in water of 10% charcoal powder, 5% gum arabic and 1% carboxymethyl cellulose or 0.6% methyl cellulose). The mice are sacrificed five minutes later by cervical dislocation, and gastric drainage is defined as the presence of charcoal in the intestine beyond the pyloric sphincter (Eur. J. Pharmacol., 1993, 232, 13-19).

human CCK-B receptor = molecular target: T2, human CCK-B receptor (Homo sapiens, UniProt P32239); assay: in vitro binding to the human CCK-B receptor; details: read-out: affinity for the human CCK-B receptor (IC50)
T2 sequence (P32239 1-447): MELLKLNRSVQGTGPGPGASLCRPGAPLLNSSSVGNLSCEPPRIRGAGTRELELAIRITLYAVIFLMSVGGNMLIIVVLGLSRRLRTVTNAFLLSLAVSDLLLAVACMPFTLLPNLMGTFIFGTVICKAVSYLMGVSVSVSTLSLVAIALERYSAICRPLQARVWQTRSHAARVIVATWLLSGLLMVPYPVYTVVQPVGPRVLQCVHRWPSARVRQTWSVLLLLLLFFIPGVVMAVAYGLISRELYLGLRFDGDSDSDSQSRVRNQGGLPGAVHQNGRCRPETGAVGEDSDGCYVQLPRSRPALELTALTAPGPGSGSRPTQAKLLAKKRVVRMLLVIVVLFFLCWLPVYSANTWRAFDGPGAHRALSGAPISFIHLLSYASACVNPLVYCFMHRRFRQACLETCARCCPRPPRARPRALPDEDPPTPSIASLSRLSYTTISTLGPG

## COc1cc(-c2nc(NC(=O)c3cc4cc(C)cc(C)c4n3CC(=O)O)sc2CCC2CCCCC2)c(OC)cc1Cl.O=C(O)C(F)(F)F [Example 5, 2-(4-(4-Chloro-2,5-dimethoxyphenyl)-5-(2-cyclohexylethyl)-2-thiazolylcarbamoyl)-5,7-dimethyl-1-indoleacetic acid trifluoroacetic acid.]
Human CCK-A receptor [1]; increase to the same level as CCK itself
  agonist behaviour on intracellular calcium relative to CCK: total agonist
Human CCK-A receptor [1]; read-out: EC50 (effective concentration which induces 50% of the effect of CCK) for increase in intracellular calcium concentration, 3T3 cells expressing human CCK-A receptor
  EC50: 1.27 nM
Human CCK-A receptor [2]
  IC50: 0.56 nM
[3]
  ED50 on gastric drainage: 1.9 µg/kg
  effect on gastric drainage: completely inhibits gastric drainage
Human CCK-B receptor
  IC50: 162 nM
